Series [1] is described as follows: cells. Conditions: Homo sapiens, HCT-116.
Description: Antiproliferative activity against human HCT116 cells harboring K-Ras G13D mutation
Series [2] is described as follows: Ratio of AUC in brain to plasma in mouse at 5 mg/kg, iv measured for 0 to 3 hrs. Conditions: brain and plasma, read-out: BPR. The series is classed as ADME, organism-based.
In a further series the target is Carbonic anhydrase 1 (Homo sapiens, UniProt P00915). The series can be described thus: Inhibition of human carbonic anhydrase 1.
The subject of series [3] is A549. The series is described as follows: Antitumor activity against human A549 cells xenografted in mouse assessed as reduction in tumor area at 1 mg/kg, po qd relative to control. The series is classed as functional.
A further series deals with A-375. The series can be described thus: Antiproliferative activity against human A375 cells harboring BRAF(V600E) mutation after 72 hrs by cell titer glow cell titer glow FCTGI assay. Conditions: A-375, 72 h. Background: In ATP-based viability assays light output follows the ATP content of the culture.
The test system of series [4] is A549. The series can be described thus: Antitumor activity against human A549 cells xenografted in mouse assessed as reduction in tumor area at 2 mg/kg, po qd relative to control. The series is classed as functional. On the technique in general: Xenograft models place foreign cells or tissue in a host animal.
Series [5] is described as follows: Blood clearance in rat at 0.5 mg/kg, iv or 1 mg/kg, po. It is filed as ADME, organism-based.
The test system of a further series is HepG2. The series is described as follows: cells. Conditions: Homo sapiens.
The subject of another series is MCF7. The series is described as follows: cells. Conditions: Homo sapiens.
Series [6] can be described thus: Half life in rat at 0.5 mg/kg, iv or 1 mg/kg, po. Particulars: in vivo. The series is classed as ADME, organism-based.
Series [7] concerns A549. The series can be described thus: cells. Conditions: Homo sapiens.
Description: Antiproliferative activity against human A549 cells harboring K-Ras mutation
Series [8] can be described thus: Oral bioavailability in rat 1 mg/kg. It is filed as ADME, organism-based. Conditions: in vivo.
A short description of series [9]: Volume of distribution at steady state in rat at 0.5 mg/kg, iv or 1 mg/kg, po. The series is classed as ADME, organism-based. Conditions: in vivo, read-out: Vdss.
Series [10] in a line: cells. Particulars: Homo sapiens, COLO 205.
Description: Antiproliferative activity against human COLO205 cells harboring BRAF mutation
The target of a further series is Carbonic anhydrase 2 (Homo sapiens, UniProt P00918). The series is described as follows: Inhibition of human carbonic anhydrase 2.
The nature of series [11]: Half life in rat at 0.5 mg/kg, iv or 5 mg/kg, po. It is filed as ADME, organism-based. Conditions: in vivo.
Series [12] is described as follows: Oral bioavailability in rat 5 mg/kg. The series is classed as ADME, organism-based. Conditions: in vivo.

The text below walks through data of ChEMBL document CHEMBL3745607, “Optimization of allosteric MEK inhibitors. Part 2: Taming the sulfamide group balances compound distribution properties” (Bioorg Med Chem Lett, 2016).

Each structure is given as a SMILES string. pIC50: −log10 of the molar value. A value given as a limit tells only on which side of the number the result lay.

Chain of Carbonic anhydrase 1 (P00915 whole entry): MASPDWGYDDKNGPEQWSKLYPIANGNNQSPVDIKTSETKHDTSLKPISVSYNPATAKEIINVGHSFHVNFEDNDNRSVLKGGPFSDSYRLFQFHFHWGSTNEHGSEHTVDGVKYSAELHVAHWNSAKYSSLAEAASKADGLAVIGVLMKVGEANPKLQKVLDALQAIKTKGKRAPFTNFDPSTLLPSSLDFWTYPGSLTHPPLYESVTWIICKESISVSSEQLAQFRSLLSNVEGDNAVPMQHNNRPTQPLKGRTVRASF
Description for HepG2: Antiproliferative activity against human HepG2 cells harboring N-Ras mutation
Description for MCF7: Antiproliferative activity against human MCF7 cells

Take `NC(=O)c1c(Nc2ccc(I)cc2F)cc(F)cc1Oc1cccc(NS(N)(=O)=O)c1`: the pIC50 in the series “cells [1]” is 6.74; at Carbonic anhydrase 1, 5.32. For the same molecule, the Kp in series [2] is below 0.02. In addition, the T/C with A549 [3] is 0.15.
In turn, `NC(=O)c1c(Nc2ccc(I)cc2F)cc(F)cc1Oc1cccc(CS(N)(=O)=O)c1` had a pIC50 in “cells [1]” of 5.46.
`NC(=O)c1c(Nc2ccc(I)cc2F)cc(F)cc1Oc1ccc(Cl)c(NS(N)(=O)=O)c1` gave a pIC50 in the series with A-375 of 6.32.
As for `NC(=O)c1c(Oc2cccc(CS(N)(=O)=O)c2)cc(F)c(F)c1Nc1ccc(I)cc1F`, the results for the pIC50 in “cells [1]” and with A-375 were 6.52 and 7.96, respectively.
For `NC(=O)c1c(Oc2ccc(F)c(NS(N)(=O)=O)c2F)cc(F)c(F)c1Nc1ccc(I)cc1F` the same measures were 5.53 and 7.49.
`NC(=O)c1c(Nc2ccc(I)cc2F)cc(F)cc1Oc1ccccc1NS(N)(=O)=O`: the results for the pIC50 in “cells [1]” and with A-375 were 5.62 and 7.19, respectively.
Molecule `NC(=O)c1c(Nc2ccc(I)cc2F)cc(F)cc1Oc1cccc(F)c1NS(N)(=O)=O` showed a pIC50 in the series with A-375 of 6.86.
For the molecule `NC(=O)c1c(Nc2ccc(I)cc2F)cc(F)cc1Oc1ccc2c(c1)N(S(N)(=O)=O)CCO2`, in the series with A-375, the pIC50 is 6.47.
Take `CCOc1ccc(Oc2cc(F)cc(Nc3ccc(I)cc3F)c2C(N)=O)cc1NS(N)(=O)=O`: the pIC50 in the series with A-375 is 6.01.
Take `CCS(=O)(=O)Nc1cccc(Oc2c(F)c(F)cc(Nc3ccc(I)cc3F)c2C(N)=O)c1`: the pIC50 is 7.09 in “cells [1]” and 8.40 with A-375.
For the molecule `NC(=O)c1c(Nc2ccc(I)cc2F)cc(F)cc1Oc1ccc(F)c(NS(N)(=O)=O)c1F`, the pIC50 with A-375 was 6.43.
On to `NC(=O)c1c(Nc2ccc(I)cc2F)cc(F)cc1Oc1cccc(NS(N)(=O)=O)c1Br`, for which the pIC50 in the series “cells [1]” was 6.82; with A-375, 8.10.
For `NC(=O)c1c(Oc2ccc(F)c(NS(N)(=O)=O)c2)cc(F)c(F)c1Nc1ccc(I)cc1F`, the pIC50 was 6.56 in “cells [1]”; 8.70 in the series with HepG2; below 5.00 in the series on MCF7; 6.50 in the series with A549 [7]; 7.89 in the series on A-375; 7.38 in the series “cells [10]”. Further, the T/C with A549 [4] was found to be 0.21. This molecule also had a clearance in series [5] of 0.333 mL/min/kg. Moreover, the Kp in series [2] was below 0.02. For the same molecule, the half-life in [6] was 26 h. Further, the bioavailability in series [8] stood at 84%. The Vd in [9] is 0.5 L/kg.
Turning to `NCCS(=O)(=O)Nc1cccc(Oc2cc(F)cc(Nc3ccc(I)cc3F)c2C(N)=O)c1`, the values for the pIC50 in “cells [1]”, on Carbonic anhydrase 2 and in the series on A-375 were 5.74, below 5.00 and 7.06, respectively.
As to `NC(=O)c1c(Oc2cccc(CNS(N)(=O)=O)c2)cc(F)c(F)c1Nc1ccc(I)cc1F`, the pIC50 in the series “cells [1]” is 6.91; in the series with HepG2, 8.30; with MCF7, below 5.00; in the series on A549 [7] it was 6.73; with A-375, 8.40; in “cells [10]”, 8.05. This molecule had a clearance in series [5] of 1.17 mL/min/kg. Further, in series [2], the Kp was below 0.02. In addition, the half-life in series [6] is 32 h. The molecule also had a bioavailability in [8] of 78%. Further, the Vd in [9] turned out to be 1.9 L/kg. In addition, the T/C in the series with A549 [3] is listed as 0.13.
As to `COc1cc(NS(N)(=O)=O)cc(Oc2cc(F)cc(Nc3ccc(I)cc3F)c2C(N)=O)c1`, the pIC50 in the series on A-375 was 6.04.
On to `NC(=O)c1c(Oc2cccc(NS(N)(=O)=O)c2)cc(F)c(F)c1Nc1ccc(I)cc1F`, for which the negative-log IC50 (pIC50) in the series “cells [1]” is 7.30; in the series on A-375 it was 8.70.
With `NC(=O)c1c(Nc2ccc(I)cc2F)cc(F)cc1Oc1cccc(CNS(N)(=O)=O)c1`, the pIC50 in “cells [1]” was 6.12; in the series on A-375 it was 7.46.
Consider `Cc1c(NS(N)(=O)=O)cccc1Oc1cc(F)c(F)c(Nc2ccc(I)cc2F)c1C(N)=O`, for which the pIC50 is 8.70 in “cells [1]” and 9.70 in the series with A-375.
Turning to `CCS(=O)(=O)Nc1cccc(Oc2cc(F)c(F)c(Nc3ccc(I)cc3F)c2C(N)=O)c1`, the pIC50 in “cells [1]” was 7.19; in the series on A-375, 8.62.
As for `CCNS(=O)(=O)Nc1cccc(Oc2cc(F)cc(Nc3ccc(I)cc3F)c2C(N)=O)c1`, the pIC50 in the series “cells [1]” is 6.54; with A-375, above 7.52.
Regarding `Cc1c(NS(N)(=O)=O)cccc1Oc1cc(F)cc(Nc2ccc(I)cc2F)c1C(N)=O`, the pIC50 is 8.05 in “cells [1]” and 8.70 in the series on A-375.
In the case of `CN(C)S(=O)(=O)Nc1cccc(Oc2cc(F)c(F)c(Nc3ccc(I)cc3F)c2C(N)=O)c1`, the pIC50 in the series “cells [1]” is 7.38; in the series on A-375, 8.22.
On to `NC(=O)c1c(Nc2ccc(I)cc2F)cc(F)cc1Oc1cccc(NS(N)(=O)=O)c1Cl`, for which the pIC50 was 7.06 in the series “cells [1]” and 8.22 in the series with A-375.
`NC(=O)c1c(Nc2ccc(I)cc2F)cc(F)cc1Oc1ccc(F)c(NS(N)(=O)=O)c1`: the pIC50 was 5.60 in “cells [1]” and 7.05 with A-375.
Take `Cc1ccc(NS(N)(=O)=O)cc1Oc1cc(F)cc(Nc2ccc(I)cc2F)c1C(N)=O`: the negative-log IC50 (pIC50) in the series with A-375 is 6.24.
With `CC(NS(N)(=O)=O)c1cccc(Oc2cc(F)cc(Nc3ccc(I)cc3F)c2C(N)=O)c1` (configuration not stated), the negative-log IC50 (pIC50) is 6.14 in “cells [1]” and 7.62 in the series on A-375.
The molecule `Cc1ccc(Oc2cc(F)cc(Nc3ccc(I)cc3F)c2C(N)=O)cc1NS(N)(=O)=O` gave a pIC50 with A-375 of 6.74.
In turn, `COc1ccc(Oc2cc(F)cc(Nc3ccc(I)cc3F)c2C(N)=O)cc1NS(N)(=O)=O` had a pIC50 with A-375 of 6.14.
For the molecule `Cc1cccc(Oc2cc(F)cc(Nc3ccc(I)cc3F)c2C(N)=O)c1NS(N)(=O)=O`, in the series with A-375, the pIC50 was 6.66.
Regarding `Cn1cnc2c(F)c(Nc3ccc(Br)cc3Cl)c(C(=O)NOCCO)cc21` [SELUMETINIB], the pIC50 was 5.52 in “cells [1]”, below 5.00 with MCF7 and 7.16 in the series “cells [10]”. The same molecule gave a half-life in [11] of 4.1 h. The same molecule had a bioavailability in [12] of 24%.

Usually pIC50 stands for −log10 of the IC50, conventionally taken in molar units. A higher pIC50 goes with a low IC50. One may read the half-life as the time in which the quantity being followed falls by half. A high value points to slow decline. As usually defined, the bioavailability is the share of a dose that reaches the circulation, judged against a reference dose that is usually intravenous. A lower bioavailability goes with poor availability.
